Laboratory results taken from PMC9687812, “Discovery of Trace Amine-Associated Receptor 1 (TAAR1) Agonist 2-(5-(4′-Chloro-[1,1′-biphenyl]-4-yl)-4H-1,2,4-triazol-3-yl)ethan-1-amine (LK00764) for the Treatment of Psychotic Disorders” (Biomolecules, 2022).
Where two headings read alike, the source gives them in different places.

Key:
TAAR1 = target: T1, TAAR1 (Homo sapiens, UniProt Q96RJ0); assay: BRET-based cellular cAMP (EPAC biosensor) assay of TAAR1 agonism in transfected HEK-293 cells; conditions: for Emax: HEK293, read-out: Emax: maximum observed activation of TAAR1 relative to that observed for 1 μM of β-PEA; for Emax: maximum observed activation of TAAR1 relative to that observed for 1 μM of β-PEA: relative to 1 μM β-PEA, mean from 3 BRET assays, errors ±5–10%
T1 sequence (Q96RJ0 1-339): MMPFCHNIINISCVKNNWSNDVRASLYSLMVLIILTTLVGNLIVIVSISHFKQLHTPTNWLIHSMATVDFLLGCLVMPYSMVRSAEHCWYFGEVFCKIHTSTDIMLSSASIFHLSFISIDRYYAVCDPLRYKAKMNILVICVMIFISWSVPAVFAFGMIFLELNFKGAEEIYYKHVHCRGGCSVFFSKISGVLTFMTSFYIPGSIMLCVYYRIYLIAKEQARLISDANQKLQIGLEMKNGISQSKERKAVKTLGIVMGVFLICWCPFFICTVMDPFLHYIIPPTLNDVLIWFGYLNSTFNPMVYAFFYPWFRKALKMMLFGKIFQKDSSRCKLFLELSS

[1] = TAAR1 activation, BRET assay, HEK-293, mean from 3 assays

| Compound | melting point | EC50 (TAAR1) | Emax (TAAR1) | EC50 (TAAR1; [1]) | Emax: maximum observed activation of TAAR1 relative to that observed for 1 μM of β-PEA (TAAR1) |
| --- | --- | --- | --- | --- | --- |
| Cl.NCCc1nnc(-c2cccc([N+](=O)[O-])c2)[nH]1 [Compound 36, 2-(5-(3-Nitrophenyl)-4H-1,2,4-triazol-3-yl)ethan-1-amine Hydrochloride] | 214 to 216 °C | 440 nM | 110% | – | – |
| Cc1ccc(-c2nnc(CCN)[nH]2)cc1C.Cl [Compound 37, 2-(5-(3,4-Dimethylphenyl)-4H-1,2,4-triazol-3-yl)ethan-1-amine Hydrochloride] | 231 to 234 °C | > 1000 nM | 70% | – | – |
| Cl.NCCc1nnc(-c2cnccn2)[nH]1 [Compound 38, 2-(5-(Pyrazin-2-yl)-4H-1,2,4-triazol-3-yl)ethan-1-amine Hydrochloride] | 184 to 186 °C | – | – | inactive | inactive |
| Cl.NCCc1nnc(-c2ccccc2OC(F)(F)F)[nH]1 [Compound 39, 2-(5-(2-[Trifluoromethoxy]phenyl)-4H-1,2,4-triazol-3-yl)ethan-1-amine Hydrochloride] | 208 to 211 °C | – | – | inactive | inactive |
| CCCCOc1ccc(-c2nnc(CCN)[nH]2)cc1.Cl [Compound 40, 2-(5-(4-Butoxyphenyl)-4H-1,2,4-triazol-3-yl)ethan-1-amine Hydrochloride] | 205 to 207 °C | 34 nM | 107% | double-digit nanomolar range | – |
| Cl.NCCc1nnc(-c2cccc(I)c2)[nH]1 [Compound 41, 2-(5-(3-Iodophenyl)-4H-1,2,4-triazol-3-yl)ethan-1-amine Hydrochloride] | 224 to 225 °C | 890 nM | 80% | – | – |
| Cc1cc(-c2nnc(CCN)[nH]2)ccc1I.Cl [Compound 42, 2-(5-(4-Iodo-3-methylphenyl)-4H-1,2,4-triazol-3-yl)ethan-1-amine Hydrochloride] | 225 to 227 °C | > 1000 nM | 76% | – | – |
| Cl.NCCc1nnc(-c2ccc(OCc3ccccc3F)cc2)[nH]1 [Compound 43, 2-(5-(4-[(2-Fluorobenzyl)oxy]phenyl)-4H-1,2,4-triazol-3-yl)ethan-1-amine Hydrochloride] | 232 to 235 °C | 45 nM | 114% | – | – |
| Cl.NCCc1nnc(-c2ccc(OCc3cccc(F)c3)cc2)[nH]1 [Compound 44, 2-(5-(4-[(3-Fluorobenzyl)oxy]phenyl)-4H-1,2,4-triazol-3-yl)ethan-1-amine Hydrochloride] | 214 to 216 °C | 30 nM | 112% | – | – |
| Cl.NCCc1nnc(-c2ccc(OCc3ccc(F)cc3)cc2)[nH]1 [Compound 45, 2-(5-(4-[(4-Fluorobenzyl)oxy]phenyl)-4H-1,2,4-triazol-3-yl)ethan-1-amine Hydrochloride] | 220 to 222 °C | 22 nM | 114% | – | – |
| Cc1cc(-c2nnc(CCN)[nH]2)ccc1OCc1ccccc1F.Cl [Compound 46, 2-(5-(4-[(2-Fluorobenzyl)oxy]-3-methylphenyl)-4H-1,2,4-triazol-3-yl)ethan-1-amine Hydrochloride] | 234 to 236 °C | 398 nM | 82% | – | – |
| Cc1cc(-c2nnc(CCN)[nH]2)ccc1OCc1cccc(F)c1.Cl [Compound 47, 2-(5-(4-[(3-Fluorobenzyl)oxy]-3-methylphenyl)-4H-1,2,4-triazol-3-yl)ethan-1-amine Hydrochloride] | 215 to 216 °C | 142 nM | 106% | – | – |
| Cc1cc(-c2nnc(CCN)[nH]2)ccc1OCc1ccc(F)cc1.Cl [Compound 48, 2-(5-(4-[(4-Fluorobenzyl)oxy]-3-methylphenyl)-4H-1,2,4-triazol-3-yl)ethan-1-amine Hydrochloride] | 182 to 183 °C | 163 nM | 98% | – | – |
| Cc1ccc(Oc2ccc(-c3nnc(CCN)[nH]3)cc2)cc1C.Cl [Compound 51, 2-(5-(4-[3,4-Dimethylphenoxy]phenyl)-4H-1,2,4-triazol-3-yl)ethan-1-amine Hydrochloride] | 201 to 203 °C | 900 nM | 77% | – | – |
| Cc1ccc(Oc2cccc(-c3nnc(CCN)[nH]3)c2)c(C)c1.Cl.Cl [Compound 52, 2-(5-(3-[2,4-Dimethylphenoxy]phenyl)-4H-1,2,4-triazol-3-yl)ethan-1-amine Hydrochloride Hydrochloride] | 308 to 310 °C | > 1000 nM | 79% | – | – |
| Cl.NCCc1nnc(-c2cccc(Oc3ccccc3Cl)c2)[nH]1 [Compound 53, 2-(5-(3-[2-Chlorophenoxy]phenyl)-4H-1,2,4-triazol-3-yl)ethan-1-amine Hydrochloride] | 202 to 210 °C | 847 nM | 71% | – | – |
| Cc1ccc(Oc2ccc(-c3nnc(CCN)[nH]3)cc2)cc1.Cl [Compound 54, 2-(5-(4-[4-Methylphenoxy]phenyl)-4H-1,2,4-triazol-3-yl)ethan-1-amine Hydrochloride] | 234 to 236 °C | 150 nM | 94% | – | – |
| Cl.NCCc1nnc(-c2cccc(O)c2)[nH]1 [Compound 55, 3-(5-(2-Aminoethyl)-4H-1,2,4-triazol-3-yl)phenol Hydrochloride] | 234 to 235 °C | > 1000 nM | 88% | – | – |
| Cl.NCCc1nnc(-c2ccc(OCc3ccccc3F)c(I)c2)[nH]1 [Compound 56, 2-(5-(4-[(2-Fluorobenzyl)oxy]-3-iodophenyl)-4H-1,2,4-triazol-3-yl)ethan-1-amine Hydrochloride] | 208 to 209 °C | 316 nM | 87% | – | – |
| Cc1cc(-c2nnc(CCN)[nH]2)ccc1O.Cl [Compound 57, 4-(5-(2-Aminoethyl)-4H-1,2,4-triazol-3-yl)-2-methylphenol Hydrochloride] | 158 to 160 °C | > 1000 nM | 90% | – | – |
| COc1ccc(-c2ccc(-c3nnc(CCN)[nH]3)cc2)cc1.Cl [Compound 58, 2-(5-(4′-Methoxy-(1,1′-biphenyl)-4-yl)-4H-1,2,4-triazol-3-yl)ethan-1-amine Hydrochloride] | 300 to 301 °C | 6 nM | 97% | – | – |
| Cl.NCCc1nnc(-c2ccc(-c3ccc(OC(F)(F)F)cc3)cc2)[nH]1 [Compound 59, 2-(5-(4′-Trifluoromethoxy-(1,1′-biphenyl)-4-yl)-4H-1,2,4-triazol-3-yl)ethan-1-amine Hydrochloride] | 299 to 300 °C | 13 nM | 95% | – | – |
| Cl.NCCc1nnc(-c2ccc(-c3cccc(F)c3)cc2)[nH]1 [Compound 60, 2-(5-(3′-Fluoro-(1,1′-biphenyl)-4-yl)-4H-1,2,4-triazol-3-yl)ethan-1-amine Hydrochloride] | 260 to 262 °C | 26 nM | 95% | – | – |
| Cl.NCCc1nnc(-c2ccc(-c3ccc(F)cc3F)cc2)[nH]1 [Compound 61, 2-(5-(2′,4′-Difluoro-(1,1′-biphenyl)-4-yl)-4H-1,2,4-triazol-3-yl)ethan-1-amine Hydrochloride] | 251 to 253 °C | 18 nM | 93% | – | – |
